These results are taken from patent publication US20100010002A1, “ANTICANCER USE OF CAFFEIC ACID AND ITS DERIVATIVES” (Piramal Life Sciences Limited, priority 2006, published 2010).

The target in one series is T1, Ba/F3 Bcr-Abl/WT (Homo sapiens, UniProt P00519).
T1 construct: fused on or other part: P11274 (Breakpoint cluster region protein)
The series is described as follows: CCK-8 assay, Ba/F3 Bcr-Abl/WT. It is filed as cell-based. Conditions: CCK-8, 72 h, imatinib mesylate sensitive; read-out: Inhibitory concentration (IC50), Ba/F3 Bcr-Abl/WT. The source says:
(§1) The cell lines described in Table 3 were used to test the antiproliferative activity of test compounds.
(§2) Cell Counting Kit-8 (CCK-8) allows very convenient assay by utilizing Dojindo's highly water-soluble tetrazolium salt. CCK-8, being nonradioactive, allows sensitive colorimetric assay for the determination of number of viable cells in cell proliferation and cytotoxicity assays. The amount of the formazan dye generated by dehydrogenases in cells is directly proportional to the number of living cells. Thus, the CCK-8 assay can also be substituted for the H^3-Thymidine incorporation assay.
(§3) Plates were further incubated at 37° C., 5% CO2 incubator for 72 h. 10 μl of the CCK-8 solution was added to each well and plate was incubated for 1-4 h in the incubator. Measured the absorbance at 450 nm using a microplate reader.
(§4) A. The percent inhibition and IC50 were calculated in comparison with control values.

The subject of the next series is K562. Description: CCK-8 cell proliferation and cytotoxicity assay, K562. Conditions: read-out: Inhibitory concentration (IC50), K562. It is filed as cell-based, Human.
The target in a further series is T2, Ba/F3 Bcr-Abl/E255V (Homo sapiens, UniProt P00519, E255V, cells depend on it).
T2 construct: fused on or other part: P11274 (Breakpoint cluster region protein)
Description: CCK-8 assay, Ba/F3 Bcr-Abl/E255V. In kind it is cell-based. (Tetrazolium assays rely on reduction of a dye to a coloured formazan, in cell work by metabolically active cells.)

A further series addresses T3, Ba/F3 Bcr-Abl/H396P (Homo sapiens, UniProt P00519, H396P, cells depend on it).
T3 construct: fused on or other part: P11274 (Breakpoint cluster region protein)
The series is described as follows: CCK-8 assay, Ba/F3 Bcr-Abl/H396P. It is filed as cell-based.

Another series deals with T4, Ba/F3 Bcr-Abl/E255K (Homo sapiens, UniProt P00519, E255K, cells depend on it).
T4 construct: fused on or other part: P11274 (Breakpoint cluster region protein)
Description: CCK-8 assay, Ba/F3 Bcr-Abl/E255K. In kind it is cell-based.

Another series has as its target T5, Ba/F3 Bcr-Abl/F317L (Homo sapiens, UniProt P00519, F317L, cells depend on it).
T5 construct: fused on or other part: P11274 (Breakpoint cluster region protein)
The series is described as follows: CCK-8 assay, Ba/F3 Bcr-Abl/F317L. In kind it is cell-based.

The target of a further series is T6, Ba/F3 Bcr-Abl/M351T (Homo sapiens, UniProt P00519, M351T, cells depend on it).
T6 construct: fused on or other part: P11274 (Breakpoint cluster region protein)
The series is described as follows: CCK-8 assay, Ba/F3 Bcr-Abl/M351T. In kind it is cell-based.

For the next series, the target named is Ba/F3 Bcr-Abl/T315I (Homo sapiens, UniProt P00519, T315I, cells depend on it).
Description: as §1, §2, §3, §4

For a further series, the target named is T7, Ba/F3 Bcr-Abl/Q252H (Homo sapiens, UniProt P00519, Q252H, cells depend on it).
T7 construct: fused on or other part: P11274 (Breakpoint cluster region protein)
The series is described as follows: CCK-8 assay, Ba/F3 Bcr-Abl/Q252H. It is filed as cell-based.

The target of a further series is T8, Ba/F3 Bcr-Abl/M244V (Homo sapiens, UniProt P00519, M244V, cells depend on it).
T8 construct: fused on or other part: P11274 (Breakpoint cluster region protein)
The series is described as follows: CCK-8 assay, Ba/F3 Bcr-Abl/M244V. It is filed as cell-based.

The next series concerns the target T9, Ba/F3 Bcr-Abl/H396R (Homo sapiens, UniProt P00519, H396R, cells depend on it).
T9 construct: fused on or other part: P11274 (Breakpoint cluster region protein)
The series is described as follows: CCK-8 assay, Ba/F3 Bcr-Abl/H396R. It is filed as cell-based.

The target of a further series is T10, Ba/F3 Bcr-Abl/Y253H (Homo sapiens, UniProt P00519, Y253H, cells depend on it).
T10 construct: fused on or other part: P11274 (Breakpoint cluster region protein)
Description: CCK-8 assay, Ba/F3 Bcr-Abl/Y253H. It is filed as cell-based.

A further series deals with T11, Ba/F3 Bcr-Abl/Y253F (Homo sapiens, UniProt P00519, Y253F, cells depend on it).
T11 construct: fused on or other part: P11274 (Breakpoint cluster region protein)
Description: CCK-8 assay, Ba/F3 Bcr-Abl/Y253F. In kind it is cell-based.

The target of the next series is T12, Ba/F3 Bcr-Abl/F359V (Homo sapiens, UniProt P00519, F359V, cells depend on it).
T12 construct: fused on or other part: P11274 (Breakpoint cluster region protein)
The series is described as follows: CCK-8 assay, Ba/F3 Bcr-Abl/F359V. It is filed as cell-based.

The target in series [1] is T13, p210^bcr-abl tyrosine kinase (Homo sapiens, UniProt P00519).
T13 construct: immunoprecipitation of p210^bcr-abl tyrosine kinase from K-562 cell lysate; BCR (natural N-terminal fusion partner of the p210 BCR-ABL oncoprotein); endogenous in cells; host or cells: K-562 (human leukemic cell line); the other entry of the earlier key: BCR (P11274, Breakpoint cluster region protein)
Description: Bcr-abl kinase assay: autophosphorylation after immunoprecipitation from treated K-562 cells. In kind it is cell-based. Conditions: K-562 cells treated at IC50 and 3×IC50 for 24 h. Here is the method: To study inhibition of autophosphorylation of Bcr-abl. Study was carried out by immunoprecipitation of p210^bcr-abl tyrosine kinase from K-562 cell lysate, followed by kinase enzyme assay. The reaction mixture was subjected to SDS-PAGE followed by autoradiography.
To check for the inhibition of autophosphorylation of p210^bcr-abl tyrosine kinase by compounds of the present invention, K-562 cells which express wild type Bcr-abl were used. […] Cells were washed with PBS solution and lysed using lysis buffer (CelLytic M Cell Lysis reagent, Sigma Aldrich, USA) for 2-3 h in cold conditions. Protein was estimated by Bradford method (Bradford reagent, Sigma Aldrich, USA). For immunoprecipitation equal amount of protein is taken from all samples. A p210^bcr-abl protein was immunoprecipitated using polyclonal anti-c-abl antibody (Santa Cruz Biotechnologies, USA) followed by incubation at 4° C. overnight with Protein A-Sepharose. […]
Kinase reaction was performed using 0.5 μCi (γ^32P)-adenosine triphosphate per reaction and incubated for 30 minutes at room temperature (25° C.). […] Autophosphorylation reaction products are resolved on SDS-PAGE and detected by autoradiography.

In the next series the test system is K-562-R. The series is described as follows: 3H-Thymidine uptake cell proliferation assay, K-562-R. It is filed as cell-based. Conditions: Homo sapiens, 72 h incubation, K-562-R (GLEEVEC resistant), read-out: Antiproliferative activity IC50, K-562-R. The method, then:
(§5) ^3H-Thymidine uptake assay: ^3H-Thymidine-incorporation is directly proportional to the number of dividing cells in culture.
(§6) Exponentially growing cultures were subjected to different concentrations of test compounds and standard as given below.
(§7) Cells were seeded at a density of 3×10^3 to 5×10^3 per well (in 0.180 mL) in transparent 96 well tissue culture plate (NUNC, USA) and were allowed to incubate at 37° C. in 5% carbon dioxide incubator for 2-6 h. Test compounds were diluted in medium (RPMI1640 with 10% FBS) at various concentrations, and 0.02 mL of 10× stocks were added to each well in triplicate. Plates were incubated at 37° C. in 5% carbon dioxide incubator for 72 h, with an intermittent microscopic observation every 24 h.
(§8) After 72 h incubation, the plate was centrifuged at 1000 rpm for 10 mins in a plate centrifuge. Supernatant was carefully aspirated and ^3H-Thymidine was added to all wells at a concentration of 0.5 μCi/well in 0.1 mL complete medium. Plates were further incubated at 37° C. in 5% carbon dioxide incubator for 6-14 h.
(§9) The filter plate was dried completely at 60° C. for 1 h, or overnight (16 h) at room temperature (25° C.). […] The plate was sealed from the top, read on scintillation counter (TopCount, Packard), and percent inhibition and IC50 in comparison with control values was calculated.

The next series concerns the target T14, 32Dcl^Bcr-Abl T315I (Homo sapiens, UniProt P00519, T315I, cells depend on it).
T14 construct: Mouse fibroblast with T315I mutated Bcr-Abl; fused on or other part: P11274 (Breakpoint cluster region protein)
Description: 3H-Thymidine uptake cell proliferation assay, 32Dcl Bcr-Abl T315I. In kind it is cell-based, Mouse. Conditions: 72 h incubation, read-out: Antiproliferative activity IC50, 32Dcl^Bcr-Abl T315I. Here is the method:
as §5, §6, §7, §8, §9

The subject of the next series is K-562. Description: 3H-Thymidine uptake cell proliferation assay, K-562. Conditions: Homo sapiens, K562, 72 h incubation, read-out: Antiproliferative activity IC50, K-562. It is filed as cell-based. Here is the method:
as §5, §6, §7, §8, §9

Where [2] appears, read: mouse, ba/f3 bcr-abl/t315i, 72 h.
Setting [3] is: read-out: Inhibitory concentration (IC50), Ba/F3 Bcr-Abl/T315I, CCK-8, 72 h, imatinib mesylate resistant, Table 4.

Read-outs that look alike come from different tables or passages of the source. Some results are limits rather than exact numbers.

Take `O=C(O)/C=C/c1ccc(O)c(O)c1` [Compound 1, 3-(3,4-Dihydroxy-phenyl)-acrylic acid [caffeic acid]]: the GI50 is over 100 µM at Ba/F3 Bcr-Abl/WT; over 100 µM at Ba/F3 Bcr-Abl/E255V (mouse, 72 h); over 100 µM at Ba/F3 Bcr-Abl/H396P (mouse, 72 h); over 100 µM on Ba/F3 Bcr-Abl/E255K (mouse, 72 h); over 100 µM at Ba/F3 Bcr-Abl/F317L (mouse, 72 h); over 100 µM on Ba/F3 Bcr-Abl/M351T (mouse, 72 h). Moreover, the GI50 at Ba/F3 Bcr-Abl/T315I (setting [2]) is over 100 µM; on Ba/F3 Bcr-Abl/T315I (setting [3]) it was over 100 µM; on Ba/F3 Bcr-Abl/Q252H (mouse, 72 h), over 100 µM; at Ba/F3 Bcr-Abl/M244V (mouse, 72 h), over 100 µM; on Ba/F3 Bcr-Abl/H396R (mouse, 72 h), over 100 µM; at Ba/F3 Bcr-Abl/Y253H (mouse, 72 h), over 100 µM. The GI50 at Ba/F3 Bcr-Abl/Y253F (mouse, 72 h) was over 100 µM; on Ba/F3 Bcr-Abl/F359V (mouse, 72 h), over 100 µM. In the series with K562 (Homo sapiens, K562, 72 h), the IC50 is over 100 µM.
With `O=C(C=Cc1ccc(O)c(O)c1)N1CCC(Cc2ccccc2)CC1` [Compound 19, 1-(4-Benzyl-piperidin-1-yl)-3-(3,4-dihydroxy-phenyl)-propenone], the GI50 is 4.2 ± 1.3 µM on Ba/F3 Bcr-Abl/WT; 0.8 µM on Ba/F3 Bcr-Abl/E255V; 2.8 µM on Ba/F3 Bcr-Abl/H396P; 1.5 µM at Ba/F3 Bcr-Abl/E255K; 1.1 µM on Ba/F3 Bcr-Abl/F317L; 2.1 µM at Ba/F3 Bcr-Abl/M351T. The GI50 was 2.1 µM on Ba/F3 Bcr-Abl/T315I (ba/f3 bcr-abl/t315i); 2.7 ± 0.5 µM on Ba/F3 Bcr-Abl/T315I (setting [3]); 1.1 µM on Ba/F3 Bcr-Abl/Q252H; 1 µM at Ba/F3 Bcr-Abl/M244V; 1.4 µM at Ba/F3 Bcr-Abl/H396R; 1 µM on Ba/F3 Bcr-Abl/Y253H. Besides, the GI50 was found to be 1 µM at Ba/F3 Bcr-Abl/Y253F and 2.4 µM on Ba/F3 Bcr-Abl/F359V. For the same compound, the IC50 in the series with K562 (CCK-8, 72 h, imatinib mesylate sensitive K562) is 5.7 µM.
In the case of `COC(=O)C=Cc1ccc(O)c(O)c1` [Compound 2, 3-(3,4-Dihydroxy-phenyl)-acrylic acid methyl ester], the GI50 was 7.9 ± 2.1 µM at Ba/F3 Bcr-Abl/WT; 18.9 µM at Ba/F3 Bcr-Abl/E255V (mouse, 72 h); 26.2 µM on Ba/F3 Bcr-Abl/H396P (mouse, 72 h); 15 µM on Ba/F3 Bcr-Abl/E255K (mouse, 72 h); 23.5 µM at Ba/F3 Bcr-Abl/F317L (mouse, 72 h); 16.1 µM on Ba/F3 Bcr-Abl/M351T (mouse, 72 h). The GI50 at Ba/F3 Bcr-Abl/T315I (setting [2]) was determined as 6.3 µM; at Ba/F3 Bcr-Abl/T315I (setting [3]) it was 3.8 ± 1.9 µM; on Ba/F3 Bcr-Abl/Q252H (mouse, 72 h) it was 15.4 µM; at 32Dcl^Bcr-Abl T315I, 35 µM; on Ba/F3 Bcr-Abl/M244V (mouse, 72 h), 30.1 µM; at Ba/F3 Bcr-Abl/H396R (mouse, 72 h) it was 18.8 µM. In addition, the GI50 worked out at 14.5 µM at Ba/F3 Bcr-Abl/Y253H (mouse, 72 h); 17 µM at Ba/F3 Bcr-Abl/Y253F (mouse, 72 h); 18.4 µM on Ba/F3 Bcr-Abl/F359V (mouse, 72 h). Further, the IC50 in the series with K562 (Homo sapiens, K562, 72 h) amounted to 13.3 ± 2.1 µM; in the series on K-562-R, 23 µM; with K-562, 13.6 ± 2.3 µM. Also, in series [1], the “Inhibition of autophosphorylation of Bcr-abl (band density, autoradiography)” value is on record as “potent Bcr-abl tyrosine kinase inhibitor”.
